Read-outs that look alike come from different tables or passages of the source.
Experiments:
[1] = biological target: T1, glucosylceramide synthase (Homo sapiens, UniProt Q16739); experiment: microsomal assay measuring conversion of ceramide to glucosylceramide by HPLC (GCS IC50); assay type: biochemical; settings: concentration causing 50% inhibition of glucosylceramide synthase activity
T1 construct: Microsomes were isolated from A375 human melanoma cells; endogenous in cells; host or cells: A375 human melanoma cells (microsomal fraction, 100,000 g pellet)
T1 sequence (Q16739 1-394): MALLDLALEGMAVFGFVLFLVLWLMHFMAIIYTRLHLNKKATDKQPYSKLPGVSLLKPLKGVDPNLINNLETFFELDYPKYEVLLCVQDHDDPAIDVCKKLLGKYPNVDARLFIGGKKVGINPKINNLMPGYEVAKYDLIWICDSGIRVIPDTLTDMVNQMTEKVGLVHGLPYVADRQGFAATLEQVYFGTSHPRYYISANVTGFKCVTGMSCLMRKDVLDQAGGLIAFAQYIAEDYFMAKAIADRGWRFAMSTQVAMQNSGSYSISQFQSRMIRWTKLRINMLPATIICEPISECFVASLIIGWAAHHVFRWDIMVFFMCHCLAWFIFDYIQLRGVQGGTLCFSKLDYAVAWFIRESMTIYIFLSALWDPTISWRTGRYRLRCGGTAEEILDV
How it was run: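 IC50 is the compound concentration halving glucosylceramide synthase activity. Activity was measured in microsomes, with HPLC quantifying glucosylceramide formed from ceramide.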

[2] = system: GM3 expression on the cell surface, B16 mouse melanoma cells; experiment: cell based phenotypic assay, cell surface GM3 by antibody mediated immunofluorescence, B16 (GM3 B16 IC50); settings: Mus musculus, 50% inhibition of GM3 expression on the cell surface
How it was run: (§1)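 B16 mouse and C32 human melanoma cells; cell-surface GM3 measured by antibody-mediated immunofluorescence, giving IC50.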

[3] = system: GM3 expression on the cell surface, C32 human melanoma cells; experiment: cell based phenotypic assay, cell surface GM3 by antibody mediated immunofluorescence, C32 (GM3 C32 IC50); settings: Homo sapiens, 50% inhibition of GM3 expression on the cell surface
How it was run: as §1

[4] = system: B16 mouse melanoma cells; experiment: cell viability in the B16 cell-based assay (Viability, B16 IC50)
How it was run: (§2)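 Cell death was scored within the cell-based GM3 experiment for each line. The viability value is the concentration producing 50% death, and numbers exceeding 10 signify no cytotoxicity.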

[5] = system: C32 human melanoma cells; experiment: cell viability in the C32 cell-based assay (Viability, C32 IC50); settings: concentration causing 50% cell death, values greater than 10 represent a lack of cell death
How it was run: as §2

[6] = B16 mouse melanoma cells, read-out: GM3 B16 IC50
[7] = C32 human melanoma cells, read-out: GM3 C32 IC50
[8] = Mus musculus, B16, B16 cells, concentration causing 50% cell death, values greater than 10 represent a lack of cell death, read-out: Viability, B16 IC50
[9] = Homo sapiens, C32, C32 cells, read-out: Viability, C32 IC50
[10] = read-out: GM3 B16 IC50, B16 mouse melanoma cells
[11] = read-out: GM3 C32 IC50, C32 human melanoma cells
[12] = Mus musculus, B16, read-out: Viability, B16 IC50
[13] = Homo sapiens, C32, read-out: Viability, C32 IC50, C32 cells

Row | Compound | IC50 [1] [nM] | IC50 [2, 6] [nM] | IC50 [3, 7] [nM] | IC50 [4, 8] [nM] | IC50 [5, 9] [nM] | IC50 [2, 10] [nM] | IC50 [3, 11] [nM] | IC50 [4, 12] [nM] | IC50 [5, 13] [nM] | IC50 ([4]; read-out: Viability, B16 IC50, B16 cells, concentration causing 50% cell death, values greater than 10 represent a lack of cell death) [nM] | IC50 ([5]; read-out: Viability, C32 IC50, C32 cells) [nM]
1 | COCCOCc1ccc(-c2ccc(C(C)(C)NC(=O)NC3(C)CCN4CCC3CC4)cc2)cc1 (stereo not shown) [Example 201, 1-(2-(4′-((2-Methoxyethoxy)methyl)-[1,1′-biphenyl]-4-yl)propan-2-yl)-3-(4-methyl-1-azabicyclo[3.2.2]nonan-4-yl)urea] | 13.9 | 23 | 0.76 | ≥ 10000 | 316 |  |  |  |  |  | 
2 | COCCOCc1ccc(-c2ccc(C(C)(C)NC(=O)N3CCN4CCC3CC4)cc2)cc1 [Example 202, N-(2-(4′-((2-Methoxyethoxy)methyl)-[1,1′-biphenyl]-4-yl)propan-2-yl)-1,4-diazabicyclo[3.2.2]nonane-4-carboxamide] | 2350 | 933 | 154 | ≥ 10000 | ≥ 10000 |  |  |  |  |  | 
3 | COCCOCc1ccc(-c2ccc(C3(NC(=O)OC4CCN5CCC4CC5)CC3)cc2)cc1 (stereo not shown) [Example 204, 1-Azabicyclo[3.2.2]nonan-4-yl (1-(4′-((2-methoxyethoxy)methyl)-[1,1′-biphenyl]-4-yl)cyclopropyl)carbamate] | 43.3 | 99.3 | 8.26 | ≥ 10000 | 1470 |  |  |  |  |  | 
4 | COCCOCc1ccc(-c2ccc(C3(NC(=O)NC4(C)CN5CCC4CC5)CC3)cc2)cc1 (stereo not shown) [Example 205, 1-(1-(4′-((2-Methoxyethoxy)methyl)-[1,1′-biphenyl]-4-yl)cyclopropyl)-3-(3-methylquinuclidin-3-yl)urea] | 51.5 | 156 | 5.31 | ≥ 10000 | 1780 |  |  |  |  |  | 
5 | CCC1(NC(=O)NC2(c3ccc(-c4ccc(COCCOC)cc4)cc3)CC2)CN2CCC1CC2 (stereo not shown) [Example 206, 1-(3-Ethylquinuclidin-3-yl)-3-(1-(4′-((2-methoxyethoxy)methyl)-[1,1′-biphenyl]-4-yl)cyclopropyl)urea] | 27.8 | 59.6 | 2.66 | ≥ 10000 | 1780 |  |  |  |  |  | 
6 | COCCOCc1ccc(-c2ccc(C3(NC(=O)NC4(C)CCN5CCC4CC5)CC3)cc2)cc1 (stereo not shown) [Example 207, 1-(1-(4′-((2-Methoxyethoxy)methyl)-[1,1′-biphenyl]-4-yl)cyclopropyl)-3-(4-methyl-1-azabicyclo[3.2.2]nonan-4-yl)urea] | 12.3 | 31.3 | 1.39 | ≥ 10000 | 1780 |  |  |  |  |  | 
7 | COCCOCc1ccc(-c2ccc(C3(NC(=O)N[C@]4(C)CN5CCC4CC5)CC3)cc2)cc1 [Example 210, (S)-1-(1-(4′-((2-Methoxyethoxy)methyl)-[1,1′-biphenyl]-4-yl)cyclopropyl)-3-(3-methylquinuclidin-3-yl)urea] | 50.2 | 87 | 3.34 | ≥ 10000 | ≥ 10000 |  |  |  |  |  | 
8 | COCCOCc1ccc(-c2ccc(C3(NC(=O)N[C@@]4(C)CN5CCC4CC5)CC3)cc2)cc1 [Example 211, (R)-1-(1-(4′-((2-Methoxyethoxy)methyl)-[1,1′-biphenyl]-4-yl)cyclopropyl)-3-(3-methylquinuclidin-3-yl)urea] | 938 | 683 | 72 | ≥ 10000 | 3160 |  |  |  |  |  | 
9 | COCCCc1ccc(-c2ccc(C3(NC(=O)OC4CCN5CCC4CC5)CC3)cc2)cc1 (stereo not shown) [Example 212, 1-Azabicyclo[3.2.2]nonan-4-yl (1-(4′-(3-methoxypropyl)-[1,1′-biphenyl]-4-yl)cyclopropyl)carbamate] | 3.85 | 47.9 | 2.53 | 6360 | ≥ 10000 |  |  |  |  |  | 
10 | COCCCc1ccc(-c2ccc(C3(NC(=O)NC4(C)CCN5CCC4CC5)CC3)cc2)cc1 (stereo not shown) [Example 213, 1-(1-(4′-(3-Methoxypropyl)-[1,1′-biphenyl]-4-yl)cyclopropyl)-3-(4-methyl-1-azabicyclo[3.2.2]nonan-4-yl)urea] | 1.12 | 5.9 | 0.35 | 9220 | ≥ 10000 |  |  |  |  |  | 
11 | COCCCc1ccc(-c2ccc(C3(NC(=O)NC4(C)CN5CCC4CC5)CC3)cc2)cc1 (stereo not shown) [Example 214, 1-(1-(4′-(3-Methoxypropyl)-[1,1′-biphenyl]-4-yl)cyclopropyl)-3-(3-methylquinuclidin-3-yl)urea] | 3.29 | 32.9 | 1.26 | ≥ 10000 | ≥ 10000 |  |  |  |  |  | 
12 | CCC1(NC(=O)NC2(c3ccc(-c4ccc(CCCOC)cc4)cc3)CC2)CN2CCC1CC2 (stereo not shown) [Example 215, 1-(3-Ethylquinuclidin-3-yl)-3-(1-(4′-(3-methoxypropyl)-[1,1′-biphenyl]-4-yl)cyclopropyl)urea] | 2.48 | 16.2 | 0.542 | 7550 | ≥ 10000 |  |  |  |  |  | 
13 | O=C(NC1(c2ccc(-c3ccc(COCc4cccnc4)cc3)cc2)CC1)OC1CN2CCC1CC2 (stereo not shown) [Example 216, Quinuclidin-3-yl (1-(4′-((pyridin-3-ylmethoxy)methyl)-[1,1′-biphenyl]-4-yl)cyclopropyl)carbamate] | 9.33 |  |  |  |  | 201 | 11.1 | 7940 | ≥ 10000 |  | 
14 | CCC1(NC(=O)NC2(c3ccc(-c4ccc(COCc5cccnc5)cc4)cc3)CC2)CN2CCC1CC2 (stereo not shown) [Example 217, 1-(3-Ethylquinuclidin-3-yl)-3-(1-(4′-((pyridin-3-ylmethoxy)methyl)-[1,1′-biphenyl]-4-yl)cyclopropyl)urea] | 13.3 | 168 | 4.02 | ≥ 10000 | ≥ 10000 |  |  |  |  |  | 
15 | CCCC1(NC(=O)NC2(c3ccc(-c4ccc(COCc5cccnc5)cc4)cc3)CC2)CN2CCC1CC2 (stereo not shown) [Example 218, 1-(3-Propylquinuclidin-3-yl)-3-(1-(4′-((pyridin-3-ylmethoxy)methyl)-[1,1′-biphenyl]-4-yl)cyclopropyl)urea] | 11 | 80.9 | 2.97 | 7950 | ≥ 10000 |  |  |  |  |  | 
16 | O=C(NC1(c2ccc(-c3ccc(COCc4cncnc4)cc3)cc2)CC1)OC1CN2CCC1CC2 (stereo not shown) [Example 219, Quinuclidin-3-yl (1-(4′-((pyrimidin-5-ylmethoxy)methyl)-[1,1′-biphenyl]-4-yl)cyclopropyl)carbamate] | 46.6 |  |  |  |  | 118 | 20.9 | ≥ 10000 | ≥ 10000 |  | 
17 | CCC1(NC(=O)NC2(c3ccc(-c4ccc(COCc5cncnc5)cc4)cc3)CC2)CN2CCC1CC2 (stereo not shown) [Example 220, 1-(3-Ethylquinuclidin-3-yl)-3-(1-(4′-((pyrimidin-5-ylmethoxy)methyl)-[1,1′-biphenyl]-4-yl)cyclopropyl)urea] | 51.6 | 114 | 6.06 | ≥ 10000 | 3160 |  |  |  |  |  | 
18 | O=C(NC1(c2ccc(-c3ccc(COCc4cncnc4)cc3)cc2)CC1)OC1CCN2CCC1CC2 (stereo not shown) [Example 221, 1-Azabicyclo[3.2.2]nonan-4-yl (1-(4′-((pyrimidin-5-ylmethoxy)methyl)-[1,1′-biphenyl]-4-yl)cyclopropyl)carbamate] | 52.1 | 99.2 | 21.1 | ≥ 10000 | ≥ 10000 |  |  |  |  |  | 
19 | COCCCc1ccc(-c2ccc(C(C)(C)NC(=O)NC3(C)CN4CCC3CC4)cc2)cc1 (stereo not shown) [Example 222, 1-(2-(4′-(3-Methoxypropyl)-[1,1′-biphenyl]-4-yl)propan-2-yl)-3-(3-methylquinuclidin-3-yl)urea] | 1.7 | 30.7 | 0.758 | ≥ 10000 | ≥ 10000 |  |  |  |  |  | 
20 | CC(C)(NC(=O)OC1CN2CCC1CC2)c1ccc(-c2ccc(CO)cc2)cc1 (stereo not shown) [Example 223, Quinuclidin-3-yl (2-(4′-(hydroxymethyl)-[1,1′-biphenyl]-4-yl)propan-2-yl)carbamate] | 454 |  |  |  |  | 881 | 21.6 |  |  | ≥ 10000 | ≥ 10000

From US12060349B2, “Glucosylceramide synthase inhibitors” (Genzyme Corporation, priority 2012, dated 2024)
